Experimental data: patent US12083187B2, “Method of treatment for solid tumors containing hypoxia and/or stroma features” (Wayne State University, priority 2017, dated 2024)
Values joined by “and” are separate entries in the source; they are usually repeats but may differ in a detail not shown here. Equal values may be shown once.

What was measured:
[1] = cited from earlier work
[2] = test system: A498 RCC cell-derived xenografts; test: A498 RCC cell-derived xenograft efficacy study in SCID mice; format: in vivo, mouse; details: intravenous, 30 mg/kg/day
Method: A dose of 30 mg/kg/day of this preparation was administered by intravenous (tail vein) injections for a total dose of 482 mg/kg in SCID mice bearing […]. […] In addition, after the completion of the animal experiment, tumors from treatment and control groups were dissected, and cryosectioned for imaging of apoptotic signs using TUNEL (Terminal deoxynucleotidyl transferase dUTP nick end labeling) and CARP-1.
For efficacy studies, after a suitable period of acclimation, a suspension of 1×10^6 A498 RCC cells in 200 μl of serum-free Hank's balanced salt solution were subcutaneously implanted in flanks of each animal using a 27-gauge needle. Tumors were allowed to grow unperturbed for 10-14 days. When tumors became palpable (200 mm^3), the mice were randomly assigned to treatment or control groups of eight animals each. […] The end points for assessing antitumor activity consisted of tumor weight, tumor growth inhibition (% T/C), and tumor cell kill Log10. Tumor weight (mg)=(A×B2)/2 where A and B are the tumor length and width (in mm), respectively. Tumor growth inhibition (T/C) was the median tumor weight in the treated group (T) when the median tumor weight in the control group reached 750 mg. Results were expressed as percentage. […] Tumor volumes were calculated by the modified ellipsoidal formula. […]

caspase-3/7 = test: Caspase 3/7 assay in Evr-res A498 cells; format: cell-based, human; details: RCC cells, vs control
A498 wild type = details: for Combination Index (Cl) Drug + CFM4.16: A498 wild type, non-encapsulated drug combined with non-encapsulated CFM4.16, MTT, CompuSyn, CI<1 synergistic
Method: (§1) Cell Viability Assays. […] After treatment, an MTT assay was performed.
(§2) In vitro cytotoxicity assay. […] First, the cells were seeded in a 96-well multiwell plate at a density of 5×10^3 cells per well. The cells were allowed to grow in fresh culture media overnight. CAIX-positive and CAIX-negative cells were generated by parallel treatments with hypoxia and normoxia as described above. After 20 h, the medium was removed, and the wells were washed twice with PBS. […] After treatment, an MTT assay was performed.
(§3) RCC is very difficult to treat as the cells are mostly resistant to many current therapies. […] First, we determined cytotoxicity of individual drugs C4.16, Sor, and Evr in both A498. […] In order to understand the safety of combination therapy, we performed the hemolysis assay using CAIX-C4.16 and combination of CAIX-C4.16+Sor.

AKT activity (pAKT) = test: Western blot of AKT activation in WT and Evr-res A498 cells; format: cell-based, human; details: vs untreated control
Method: Western Blot analysis. For protein expression analysis, western blot experiments were conducted. The RCC cells were treated with DMSO/Vehicle (Control) for the indicated doses and times of the noted compound, and were lysed to prepare protein extracts. Cells were harvested and lysed in RIPA buffer (50 mM Tris-HCl, pH 8.0, 150 mM sodium chloride, 1.0% NP-40, 0.5% sodium deoxycholate, 0.1% sodium dodecyl sulfate (SDS), and 0.1% of protease inhibitor cocktail) for 20 min at 4° C. The lysates were then centrifuged at 14,000 rpm at 4° C. for 15 min to remove debris. The protein concentrations of whole cell lysates were then determined using the Protein Assay Kit. Supernatant proteins, 50 μg from each sample, were separated by SDS-10% polyacrylamide gel electrophoresis (SDS-PAGE) and transferred to polyvinylidene difluoride (PVDF) membrane (Bio-Rad, Hercules, CA) by standard procedures. The membranes were hybridized with primary antibodies followed by incubation with appropriate secondary antibodies. […]
Mechanism of C4.16 for overcoming drug resistance. In this study, we determined how induction of apoptosis and inhibition of oncogenic survival signaling would reinforce the synergistic cell killing and reversal of drug resistance in VVT and Evr-res A498 cells when treated with CA IX C4.16+Sor. […]

[3] = test system: A498 Everolimus resistant type; details: for Combination Index (Cl) Drug + CFM4.16: A498 Everolimus resistant type, drug combined with CFM4.16, MTT, CompuSyn
Method: Generation of Everolimus-resistant RCC cells.
as §1, §2, §3

OUK262 wild type = test: MTT / CompuSyn combination index in OUK262 wild type RCC cells; details: drug combined with CFM4.16
Method: (§4) Cell Viability Assays. […] First, 5×10^3 cells were seeded in a 96-well plate in triplicate and allowed to grow in fresh culture media for another 24 h. Cells were then treated with respective agents for the noted doses and times. Control cells were treated with 0.1% DMSO in culture medium. After treatment, an MTT assay was performed. Briefly, 20 μL of 1 mg/ml of MTT was added to each well and cells were incubated for 2-4 h at 37° C. MTT was removed, and the resulting formazan products were dissolved by adding 50 μl DMSO/well followed by colorimetric analysis using a multi-label plate reader at 570 nm (Victor3; PerkinElmer, Wellesley, MA).
(§5) All the clinically drugs were treated in combination with CFM4.16 with a range of concentrations using MTT assay in the specified RCC cell line, and the data were feed to CompuSyn program to obtain the CI-value.

[4] = test system: OUK262 Everolimus resistant type; test: MTT / CompuSyn combination index in Everolimus resistant OUK262 RCC cells; details: drug combined with CFM4.16
Method: as §4, §5

Evr-res A498 tumor = details: mouse, in vivo
Method: In Vivo Imaging Studies. S0456 a reactive near-infra-red fluorochrome, was covalently linked with PLNPs and used for in vivo near-IR optical imaging of selected nanoparticle formulations. The formulations were injected intravenously in female nude mice bearing tumor xenografts. The distribution and tumor targeted delivery were imaged by tracking the fluorescent output of IRDye 800® with in vivo Imaging System (see FIG. 11).
PDX animal imaging and bio-distribution of CAIX-targeted-nanoformulation. A CAIX-targeted-nanomicelles conjugated with Near-infrared dye was administered directly via iv administration to 5-weeks old NCR SCID mice and the distribution behavior in the mice was monitored at different time points after administration using an in vivo imaging system.
To ascertain core penetrating ability of CA IX-S0456 in a drug resistant tumor model, we performed three transverse sectioning of the isolated tumor after the bio-D study.

RCC = details: cited from earlier work; for progression free survival: RCC, clinical

Compound | Combination Index (Cl) Drug + CFM4.16 (OUK262 wild type) | Combination Index (Cl) Drug + CFM4.16 [4] | Combination Index (Cl) Drug + CFM4.16 (A498 wild type) | Combination Index (Cl) Drug + CFM4.16 [3] | also measured
COc1cc2nccc(Oc3ccc(NC(=O)C4(C(=O)Nc5ccc(F)cc5)CC4)cc3)c2cc1OC [CB, cabozantinib] |  |  |  |  | well tolerated dose ([1]; mouse, in vivo): 60 mg/kg
O=C1N(Cc2ccccc2Cl)c2ccccc2C12NN=C(c1cccc(Cl)c1)S2 (stereo not drawn) [CFM-4.16] |  |  |  |  | tumor growth / tumor size [2]: failed to inhibit tumor growth; caspase-3/7 activity (caspase-3/7): induced caspase-3/7 activation; growth inhibition (in vitro cytotoxicity, comparison) (A498 wild type): more effective in inhibiting growth of WT and Evr-res A498 compared with Sor; loss in body weight ([1]; 30 mg/kg/day iv, total dose 482 mg/kg, DMSO/cremophor preparation, SCID mice): < 2% and 1.6%; MTD ([1]; mouse, in vivo): 30 mg/kg; AKT activity (pAKT) (AKT activity (pAKT)): downregulation of pAKT; growth inhibition (in vitro cytotoxicity, comparison) [3]: more effective in inhibiting growth of WT and Evr-res A498 compared with Sor
CC(C)(C)c1nc(-c2cccc(NS(=O)(=O)c3c(F)cccc3F)c2F)c(-c2ccnc(N)n2)s1 [Dabrafenib] | 0.234 | 0.587 | 0.1385 | 0.677 | 
CO[C@H]1C[C@@H]2CC[C@@H](C)[C@@](O)(O2)C(=O)C(=O)N2CCCC[C@H]2C(=O)O[C@H]([C@H](C)C[C@@H]2CC[C@@H](OCCO)[C@H](OC)C2)CC(=O)[C@H](C)/C=C(\C)[C@@H](O)[C@@H](OC)C(=O)[C@H](C)C[C@H](C)/C=C/C=C/C=C/1C [Everolimus] | 0.67 | 1.45 | 0.7 | 1.3 | growth inhibition (in vitro cytotoxicity, comparison) [3]: did not inhibit growth
O=C(c1cc(Cc2n[nH]c(=O)c3ccccc23)ccc1F)N1CCN(C(=O)C2CC2)CC1 [Olaparip] | 0.9878 | 1.312 | 1.0978 | 1.121 | 
CC(=O)c1c(C)c2cnc(Nc3ccc(N4CCNCC4)cn3)nc2n(C2CCCC2)c1=O [Palbociclib] | 0.897 | 1.0023 | 0.7 | 0.971 | 
CC1(C)C(/C=C/C2=C(Cl)C(=C/C=C3/N(CCCCS(=O)(=O)[O-])c4ccc(S(=O)(=O)[O-])cc4C3(C)C)/CCC2)=[N+](CCCCS(=O)(=O)[O-])c2ccc(S(=O)(=O)[O-])cc21.[Na+].[Na+].[Na+] [S0456] |  |  |  |  | tumor accumulation / selectivity (Evr-res A498 tumor): poor tumor accumulation with high off-target activity
CNC(=O)c1cc(Oc2ccc(NC(=O)Nc3ccc(Cl)c(C(F)(F)F)c3)cc2)ccn1 [Sorafenib] |  |  |  |  | progression free survival (RCC): 12 months; AKT activity (pAKT) (AKT activity (pAKT)): downregulation of pAKT
Nivolumab: immune-check point inhibitor (anti-PD1) approved for RCC |  |  |  |  | response rate, higher than Evr (RCC; RCC patients): 5%; progression free survival (RCC): 32 months
